Consider 1 compound from ChEMBL document CHEMBL3046237, “Efficacy of methyl nonyl ketone as an in-soil repellent for common voles (Microtus arvalis)” (2013).

Activity calls are given as the source filed them. The calls are words filed in the database; no cut-off is given here.

Assay [1] has as its system Microtus arvalis. Briefly: In-soil repellent activity against Microtus arvalis (Common vole) in forage grassland assessed as decrease in number of active burrow entrances at 3.97% ai applied as foam in field for first 3 days and reapplied on day 10 measured on day 14. It counts as functional, organism-based.
For assay [2], the system named is Microtus arvalis. Briefly: In-soil repellent activity against Microtus arvalis (Common vole) in forage grassland assessed as decrease in number of active burrow entrances at 3.97% ai applied as foam in field for first 3 days and reapplied on day 10 measured at 24 hr after last drug dosage. It counts as functional, organism-based.
Assay [3] relates to Microtus arvalis. As to the kind of experiment: Decrease in reopening of compound treated burrow entrances in forage grassland by Microtus arvalis (Common vole) assessed as increase in number of new burrow entrances at 3.97% ai applied as foam in field (reference value: 41 +/-21.1%). Also noted: scale not given: the % may be the effect or the level left. It counts as functional.

In assay [4] the test system is Microtus arvalis. Briefly: In-soil repellent activity against Microtus arvalis (Common vole) in forage grassland assessed as decrease in number of active burrow entrances at 3.97% ai applied as foam in field measured after 4-5 days of treatment. The class given is functional, organism-based.
Assay [5] relates to Microtus arvalis. As to the kind of experiment: In-soil repellent activity against Microtus arvalis (Common vole) in forage grassland assessed as decrease in number of active burrow entrances at 3.97% ai applied as foam in field measured after 6 days of treatment relative to untreated control. It counts as functional.
Assay [6] has as its system Microtus arvalis. As to the kind of experiment: In-soil repellent activity against Microtus arvalis (Common vole) in forage grassland assessed as decrease in number of active burrow entrances at 3.97% ai applied as foam in field measured after 6 days of treatment (reference value: 48 +/-12%). It counts as functional.
Assay [7] relates to Microtus arvalis. As to the kind of experiment: In-soil repellent activity against Microtus arvalis (Common vole) in forage grassland assessed as decrease in number of active burrow entrances at 3.97% ai applied as foam in field measured after 48 hr relative to control. It counts as functional.
In assay [8] the test system is Microtus arvalis. As to the kind of experiment: In-soil repellent activity against Microtus arvalis (Common vole) in forage grassland assessed as decrease in number of active burrow entrances at 3.97% ai applied as foam in field measured after 24 hr relative to control. It counts as functional.
Assay [9] deals with Microtus arvalis. As to the kind of experiment: In-soil repellent activity against Microtus arvalis (Common vole) in forage grassland assessed as decrease in number of active burrow entrances at 3.97% ai applied as foam in field for 3 days measured on day 10. The class given is functional, organism-based.
Assay [10] concerns Microtus arvalis. As to the kind of experiment: In-soil repellent activity against Microtus arvalis (Common vole) in forage grassland assessed as decrease in number of active burrow entrances at 3.97% ai applied as foam in field for 3 days measured on day 7. It counts as functional, organism-based.
The test system of assay [11] is Microtus arvalis. As to the kind of experiment: In-soil repellent activity against Microtus arvalis (Common vole) in forage grassland assessed as decrease in number of active burrow entrances at 3.97% ai applied as foam in field measured after 3 days of treatment. It counts as functional, organism-based.
In assay [12] the test system is Microtus arvalis. As to the kind of experiment: Decrease in reopening of compound treated burrow entrances in forage grassland by Microtus arvalis (Common vole) assessed as increase in number of new burrow entrances at 3.97% ai applied as foam in field measured after 5 days of treatment (reference value: 40 +/-19.4%). The class given is functional. Also noted: scale not given: the % may be the effect or the level left.

For the compound `CCCCCCCCCC(C)=O` [METHYL NONYL KETONE], the inhibition entry in the assay with Microtus arvalis [1], in the assay with Microtus arvalis [2], in the assay with Microtus arvalis [4], in the assay on Microtus arvalis [10] and in the assay on Microtus arvalis [11] was “Active” throughout. The Activity in the assay with Microtus arvalis [3] is recorded as 73%; with Microtus arvalis [12], 95%. In addition, the entries for the “fold change (FC)” value in the assay with Microtus arvalis [5], in the assay with Microtus arvalis [7] and in the assay with Microtus arvalis [8] were 2, 2 and 3, respectively. Moreover, the “inhibition (INH)” value in the assay with Microtus arvalis [6] amounted to 92%. In addition, the inhibition entry in the assay with Microtus arvalis [9] was “inactive”.
